A value given as a limit tells only on which side of the number the result lay.

The nature of data set [1]: Calcium sequestration by titration with calcium chloride in presence of sodium oxalate until slight turbidity. The settings on record: 20° C.; for Calcium sequestration capacity, mg Ca^2+/g mixture: Table 4. The format is physicochemical. The method, then: Salt mixtures of galactaric acid were prepared to the desired composition by mixing sodium galactarate with either sodium borate decahydrate or sodium aluminate to a final weight of 10 grams. In an alternative preparation, galactaric acid was mixed with either sodium borate decahydrate or sodium aluminate. The resulting mixture was dissolved in a stoichiometric solution of sodium hydroxide.
The efficacy of different mixtures of galactaric acid salts and oxyanion salts in sequestering calcium at 20° C. were tested. First, salt mixtures were dissolved in deionized water at 5 g/L. Sodium oxalate stock solution, prepared at 20 g/Land pH 10, was then added to the mixture solution to yield a final concentration of 1 g/L sodium oxalate. The pH was adjusted to 10 for mixtures containing borate as the oxyanion and to 11 for mixtures containing aluminate as the oxyanion with 1M sodium hydroxide or 1M hydrochloric acid. The resulting solutions were aliquoted to 50 mL and slowly titrated with stirring by addition of a 15 g/L anhydrous calcium chloride solution at a rate of 1 mL every 3 minutes until slight turbidity was observed, indicating saturation of calcium by the chelant mixture.
The effect of pH on calcium sequestration by mixtures of galactaric acid salts and oxyanion salts at room temperature was assayed. Mixtures of 70% disodium galactarate and 30% sodium aluminate and 60% disodium galactarate and 40% sodium borate decahydrate were prepared. The resulting mixtures were dissolved in deionized water at 5 g/L and the calcium sequestering capacity was determined, as described above, with the exception that the pH was adjusted to the indicated pH with either 1M sodium hydroxide or 1M hydrochloric acid.
The calcium chelating capacity of a variety of standard compounds and mixtures was determined for 5 g/L solutions dissolved in water, as described above. In all instances the temperature was 20° C. and except where noted, the pH of solution was adjusted to 10 before determination.

Data set [2] is described as follows: Qualitative solubility of sodium galactarate in water-based solutions. The settings on record: for solubility at 15 min / solubility at 50 min: 20 °C, thermodynamic from solid, 0.5 g in 50 mL, 20 C, stirring; for solubility at 15 min: Solubility after 15 min.; for solubility at 50 min: Solubility after 50 min. The method, then:
To characterize the solubility of sodium galactarate, 0.5M solutions of alkali salts and non-alkali base were prepared in deionized water. To 50 mL of each solution 0.5 g of sodium galactarate, was added at 20° C. with stirring.

Where [3] appears, read: pH 10, aqueous buffer, 0.5M NH4OH (pH 10).

For `O.O.O=C([O-])CN(CCN(CC(=O)O)CC(=O)O)CC(=O)[O-].[Na+].[Na+]` [EDTA, Ethylenedinitrilo Tetraacetic Acid Disodium Salt Dihydrate], the “Calcium sequestration capacity, mg Ca^2+/g mixture” value (shortened to “Calcium sequestration capacity”) in data set [1] (pH 10, 5 g/L in water) turned out to be 104 mg Ca^2+/g mixture.
Take `O=C([O-])CC[C@@H](C(=O)[O-])N(CC(=O)[O-])CC(=O)[O-].[Na+].[Na+].[Na+].[Na+]` [GLDA, N,N-Dicarboxymethyl glutamic acid tetrasodium salt]: the “Calcium sequestration capacity” value is listed as 80 mg Ca^2+/g mixture in data set [1] (pH 10, 5 g/L in water) and 132 mg Ca^2+/g mixture in data set [1] (pH 11, 5 g/L in water).
On to `O=C([O-])CC(O)(CC(=O)[O-])C(=O)[O-].[Na+].[Na+].[Na+]` [Trisodium citrate, trisodium citrate], for which, in data set [1] (pH 10, 5 g/L in water), the “Calcium sequestration capacity” value is reported as 32 mg Ca^2+/g mixture.
What is called solubility is how much of the substance goes into solution per volume. Regarding `O=C([O-])[C@@H](O)[C@H](O)[C@H](O)[C@@H](O)C(=O)[O-].[Na+].[Na+]` [sodium galactarate], the “Calcium sequestration, mg Ca^2+/g mixture” value in data set [1] (Table 2, no oxyanion salt, pH not stated, 5 g/L, 1 g/L sodium oxalate) was determined as 5 mg Ca^2+/g mixture. In addition, the “Effect of lithium ions present in solution on dissolution” value in data set [2] (20° C.) was “accelerated dissolution”. For the same compound, in data set [2] (20° C.), the “Effect of sodium ions in solution (sodium chloride or sodium hydroxide) on dissolution” value was “inhibited the dissolution”. The “Solubility (in words)” value in data set [2] (20° C.) is “soluble in water-based solutions and under basic conditions”. Further, the solubility at 15 min in data set [2] (aqueous buffer, 0.5M LiCl) was above 10000 µg/mL; in data set [2] (aqueous buffer, 0.5M NaOH) it was below 10000 µg/mL; in data set [2] (setting [3]) it was below 10000 µg/mL; in data set [2] (saline or isotonic, 0.5M NaCl) it was below 10000 µg/mL; in data set [2] (water, Water), below 10000 µg/mL. Further, the solubility at 50 min in data set [2] (aqueous buffer, 0.5M LiCl) was above 10000 µg/mL; in data set [2] (aqueous buffer, 0.5M NaOH), below 10000 µg/mL; in data set [2] (setting [3]), above 10000 µg/mL; in data set [2] (saline or isotonic, 0.5M NaCl), below 10000 µg/mL; in data set [2] (water, Water), above 10000 µg/mL.

The values are drawn from patent US11560529B2, “Galactarate based metal sequestration composition” (ZestBio, Inc., priority 2019, dated 2023).
